Patent publication US8299111B2, “Compounds which modulate the CB2 receptor” (Boehringer Ingelheim International GmbH, priority 2006, dated 2012)

Target: T1, human CB2R (Homo sapiens, UniProt P34972)
T1 construct: host or cells: CHO cells
Test: CB2R mediated modulation of cAMP synthesis
Type: cell-based
Conditions: found through the use of the above described assays (binding and cAMP); CHO cells expressing human CB2R, forskolin-stimulated cAMP
Outline: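 CHO cells expressing human CB2R were treated for 30 min at 37 °C with compound in buffer containing 1 mM IBMX, 0.25% BSA and 10 uM forskolin. cAMP was measured after lysis. EC50 is the concentration giving 50% inhibition of forskolin-stimulated cAMP, scaled to the level set by 1 uM CP55940, fitted by four-parameter logistic.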

T1 sequence (P34972 whole entry): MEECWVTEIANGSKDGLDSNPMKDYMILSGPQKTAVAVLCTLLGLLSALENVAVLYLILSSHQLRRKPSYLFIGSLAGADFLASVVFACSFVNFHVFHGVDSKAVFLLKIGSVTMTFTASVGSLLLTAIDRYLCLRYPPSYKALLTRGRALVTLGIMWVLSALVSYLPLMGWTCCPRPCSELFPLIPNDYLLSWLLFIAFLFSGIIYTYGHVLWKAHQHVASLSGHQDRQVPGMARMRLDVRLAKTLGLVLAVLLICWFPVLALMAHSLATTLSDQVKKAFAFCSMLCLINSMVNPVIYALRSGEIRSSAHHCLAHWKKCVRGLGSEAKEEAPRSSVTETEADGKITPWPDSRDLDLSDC

| SMILES | agonistic activity |
| --- | --- |
| Cn1nc(-c2ccccc2)cc1NC(=O)C(C)(C)S(=O)(=O)c1ccc(Cl)cc1F [2-(4-Chloro-2-fluoro-benzenesulfonyl)-2-methyl-N-(2-methyl-5-phenyl-2H-pyrazol-3-yl)-propionamide] | agonistic activity |
| CC(C)(C(=O)Nc1nc(-c2ccc(Cl)cc2)cs1)S(=O)(=O)c1ccc(C(F)(F)F)nc1 [N-[4-(4-chlorophenyl)-1,3-thiazol-2-yl]-2-methyl-2-{[6-(trifluoromethyl)pyridin-3-yl]sulfonyl}propanamide] | agonistic activity |
| COc1ccc(S(=O)(=O)C(C)(C)C(=O)Nc2nc(C(F)(F)F)cs2)cc1 [2-(4-Methoxy-benzenesulfonyl)-2-methyl-N-(4-trifluoromethyl-thiazol-2-yl)-propionamide] | agonistic activity |
| Cc1sc(NC(=O)C(C)(C)S(=O)(=O)c2ccc(C(F)(F)F)nc2)nc1-c1ccccc1 [2-methyl-N-(5-methyl-4-phenyl-1,3-thiazol-2-yl)-2-{[6-(trifluoromethyl)pyridin-3-yl]sulfonyl}propanamide] | agonistic activity |
| CC(C)(C(=O)Nc1ccc(C(F)(F)F)cn1)S(=O)(=O)c1ccc(F)cc1F [2-[(2,4-difluorophenyl)sulfonyl]-2-methyl-N-[5-(trifluoromethyl)pyridin-2-yl]propanamide] | agonistic activity |
| COc1ccc(S(=O)(=O)C(C)(C)C(=O)Nc2nc(C(C)(C)C)cs2)cn1 [N-(4-tert-Butyl-thiazol-2-yl)-2-(6-methoxy-pyridine-3-sulfonyl)-2-methyl-propionamide] | agonistic activity |
| CC(C)(C)c1cc(NC(=O)C(C)(C)S(=O)(=O)c2ccc(F)cc2)no1 [N-(5-tert-Butyl-isoxazol-3-yl)-2-(4-fluoro-benzenesulfonyl)-2-methyl-propionamide] | agonistic activity |
| CC(C)(C(=O)Nc1nc2ccccc2s1)S(=O)(=O)c1ccc(Cl)cc1F [N-1,3-benzothiazol-2-yl-2-[(4-chloro-2-fluorophenyl)sulfonyl]-2-methylpropanamide] | agonistic activity |
| CC(C)(C(=O)Nc1nc(C2CCCCC2)cs1)S(=O)(=O)c1ccc(Cl)cc1F [2-[(4-chloro-2-fluorophenyl)sulfonyl]-N-(4-cyclohexyl-1,3-thiazol-2-yl)-2-methylpropanamide] | agonistic activity |
| CC(C)C(C(=O)Nc1cc(C(C)(C)C)nn1C)S(=O)(=O)c1ccc(C(F)(F)F)cc1 (stereo not shown) [N-(5-tert-Butyl-2-methyl-2H-pyrazol-3-yl)-3-methyl-2-(4-trifluoromethyl-benzenesulfonyl)-butyramide] | agonistic activity |
| CC(C)(C)c1cc(NC(=O)C(C)(C)S(=O)(=O)c2ccc(C(F)(F)F)nc2)[nH]n1 [N-(5-tert-Butyl-2H-pyrazol-3-yl)-2-methyl-2-(6-trifluoromethyl-pyridine-3-sulfonyl)-propionamide] | agonistic activity |
| CC(C)(C(=O)Nc1nc2ccccc2o1)S(=O)(=O)c1ccc(Cl)cc1 [N-Benzooxazol-2-yl-2-(4-chloro-benzenesulfonyl)-2-methyl-propionamide] | agonistic activity |
| CC(C)(C(=O)Nc1ccc(C(F)(F)F)cn1)S(=O)(=O)c1ccc(Cl)cc1F [2-(4-Chloro-2-fluoro-benzenesulfonyl)-2-methyl-N-(5-trifluoromethyl-pyridin-2-yl)-propionamide] | agonistic activity |
| Cn1nc(-c2ccccc2)cc1NC(=O)C(C)(C)S(=O)(=O)c1ccc(Cl)cc1 [2-(4-Chloro-benzenesulfonyl)-2-methyl-N-(2-methyl-5-phenyl-2H-pyrazol-3-yl)-propionamide] | agonistic activity |
| Cc1c(-c2ccccc2)nn(C)c1NC(=O)C(C)(C)S(=O)(=O)c1ccc(Cl)cc1 [2-(4-Chloro-benzenesulfonyl)-N-(2,4-dimethyl-5-phenyl-2H-pyrazol-3-yl)-2-methyl-propionamide] | agonistic activity |
| Cn1nc(-c2ccccc2)cc1NC(=O)C(C)(C)S(=O)(=O)c1ccc(C(F)(F)F)nc1 [2-Methyl-N-(2-methyl-5-phenyl-2H-pyrazol-3-yl)-2-(6-trifluoromethyl-pyridine-3-sulfonyl)-propionamide] | agonistic activity |
| CC(C)(C(=O)Nc1nc2ccc(F)cc2s1)S(=O)(=O)c1ccc(Cl)cc1 [2-[(4-chlorophenyl)sulfonyl]-N-(6-fluoro-1,3-benzothiazol-2-yl)-2-methylpropanamide] | agonistic activity |
| Cc1nc(NC(=O)C2(S(=O)(=O)c3ccc(Cl)cc3)CC2)sc1C(C)(C)C [1-(4-Chloro-benzenesulfonyl)-cyclopropanecarboxylic acid (5-tert-butyl-4-methyl-thiazol-2-yl)-amide] | agonistic activity |
| CC(C)(C(=O)Nc1ccc(C(F)(F)F)cn1)S(=O)(=O)c1cc(F)ccc1F [2-(2,5-Difluoro-benzenesulfonyl)-2-methyl-N-(5-trifluoromethyl-pyridin-2-yl)-propionamide] | agonistic activity |
| Cn1nc(C(C)(C)C)cc1NC(=O)C(C)(C)S(=O)(=O)c1cccc(F)c1 [N-(5-tert-Butyl-2-methyl-2H-pyrazol-3-yl)-2-(3-fluoro-benzenesulfonyl)-2-methyl-propionamide] | agonistic activity |
| CC(C)(C(=O)Nc1cc(-c2cccs2)no1)S(=O)(=O)c1ccc(Cl)cc1 [2-(4-Chloro-benzenesulfonyl)-2-methyl-N-(3-thiophen-2-yl-isoxazol-5-yl)-propionamide] | agonistic activity |
| CC(C)(C)c1cc(NC(=O)C(C)(C)S(=O)(=O)c2ccc[n+]([O-])c2)no1 | agonistic activity |
| CC(C)(C(=O)Nc1ncccc1C(F)(F)F)S(=O)(=O)c1ccc(Cl)cc1 [2-(4-Chloro-benzenesulfonyl)-2-methyl-N-(3-trifluoromethyl-pyridin-2-yl)-propionamide] | agonistic activity |
| Cn1nc(C2CC2)cc1NC(=O)C(C)(C)S(=O)(=O)c1ccc(F)cc1F [N-(5-Cyclopropyl-2-methyl-2H-pyrazol-3-yl)-2-(2,4-difluoro-benzenesulfonyl)-2-methyl-propionamide] | agonistic activity |
| CC(C)(C(=O)Nc1ccc(C(F)(F)F)cn1)S(=O)(=O)c1cccc(F)c1 [2-(3-Fluoro-benzenesulfonyl)-2-methyl-N-(5-trifluoromethyl-pyridin-2-yl)-propionamide] | agonistic activity |
| CC(C)(C)c1cc(NC(=O)C(C)(C)S(=O)(=O)c2ccc(F)cc2F)no1 [N-(5-tert-Butyl-isoxazol-3-yl)-2-(2,4-difluoro-benzenesulfonyl)-2-methyl-propionamide] | agonistic activity |
| CC(C)(C)c1cc(NC(=O)C(C)(C)S(=O)(=O)c2ccc(C#N)cc2F)no1 [N-(5-tert-Butyl-isoxazol-3-yl)-2-(4-cyano-2-fluoro-benzenesulfonyl)-2-methyl-propionamide] | agonistic activity |
| O=C(Nc1cc(C(F)(F)F)ccn1)C1(S(=O)(=O)c2ccc(C(F)(F)F)cc2)CC1 [1-(4-Trifluoromethyl-benzenesulfonyl)-cyclopropanecarboxylic acid (4-trifluoromethyl-pyridin-2-yl)-amide] | agonistic activity |
